Test results taken from patent US20100105727A1, “NOVEL BENZAMIDE DERIVATIVES AND PROCESS FOR THE PREPARTION THEREOF” (DONG-A-PHARM. CO., LTD., priority 2007, published 2010).
pIC50: −log10 of the molar value. Read-outs that look alike come from different tables or passages of the source.

What was measured:
[1] = tested on: male ICR mice
Experimental: In order to examine acute toxicity of compounds according to the present invention, the following experiment was carried out.
Over the entire experimental period of 2 weeks, the minimum lethal dose (MLD, mg/kg) of the compound was investigated by the observation of the mortality, body weight and clinical symptoms of animals.

[2] = molecular target: T1, human 5-HT4 receptor (Homo sapiens, UniProt Q13639); assay: Binding affinity of compounds for 5-HT4 receptor (radioligand displacement, membrane lysates of COS-7 cells); conditions: inhibition of specific binding of 0.595 nM [H3]-AGR113808; COS-7 cell membrane lysates expressing human 5-HT4 receptor
T1 construct: expressed in transfected cells; host or cells: COS-7
T1 sequence (Q13639 whole entry): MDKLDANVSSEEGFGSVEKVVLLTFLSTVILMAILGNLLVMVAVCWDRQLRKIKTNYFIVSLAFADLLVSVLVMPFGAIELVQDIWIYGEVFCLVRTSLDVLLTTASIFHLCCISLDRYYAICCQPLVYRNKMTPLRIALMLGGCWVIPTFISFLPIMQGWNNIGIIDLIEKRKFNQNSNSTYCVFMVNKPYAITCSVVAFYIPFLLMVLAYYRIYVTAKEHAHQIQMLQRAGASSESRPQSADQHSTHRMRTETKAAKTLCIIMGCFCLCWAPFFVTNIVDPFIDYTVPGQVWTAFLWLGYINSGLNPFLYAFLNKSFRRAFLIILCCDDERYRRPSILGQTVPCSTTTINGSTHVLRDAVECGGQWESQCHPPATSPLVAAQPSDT
Experimental: For this purpose, COS-7 cells expressing the human 5-HT4 receptor were constructed and lysed to obtain cell membrane lysates which were then used in binding assay experiments. For binding assay, the membrane lysates were mixed and incubated with different concentrations of test materials and [H3]-AGR113808. […] After incubation was completed, the reaction products were collected in a GF/B glass fiber filter using a Packard cell harvester, and the bound radioactivity was then determined using a liquid cell scintillation counter (Packard TopCount NXT™, Perkin Elmer). Specific binding of the radioligand to the 5-HT4 receptor was calculated by subtracting the non-specific binding of the radioligand from the total radioligand binding. IC50 was calculated from % inhibition of specific binding of the radioligand to the 5-HT4 receptor, with respect to varying concentrations of the test materials.

[3] = male, ICR, mouse, in vivo, po, 2 weeks
[4] = oral, single dose of 1 g/10 mL/kg in 1% hydroxypropylmethylcellulose, 5-week old male ICR mice, observed 2 weeks

COc1cc(N)c(Cl)cc1C(=O)N[C@H]1CCN(CC2CCN(C(=O)N(C)C)CC2)C[C@H]1OC (relative stereo) [Compound 64, 4-[cis-4-(4-amino-5-chloro-2-methoxybenzoylamino)-3-methoxy-piperidin-1-ylmethyl]-piperidine-1-carboxylic acid dimethylamide]
Minimum lethal dose (MLD, mg/kg) [1, 3]: >1000 mg/kg | pIC50 [2]: 7.54

COc1cc(N)c(Cl)cc1C(=O)NC1CCN(CCCOc2ccc(F)cc2)CC1OC (stereo not drawn) [Cisapride, cisapride, reference compound]
Minimum lethal dose (MLD, mg/kg) [1, 3]: >1000 mg/kg

CCOC(=O)N1CCC(CN2CC[C@@H](NC(=O)c3cc(Cl)c(N)cc3OC)[C@@H](OC)C2)CC1 [Compound 2, ethyl 4-[((3S,4R)-4-(4-amino-5-chloro-2-methoxybenzamido)-3-methoxypiperidin-1-yl)methyl]piperidine-1-carboxylate]
Minimum lethal dose (MLD, mg/kg) [1, 4]: >1000 mg/kg | pIC50 [2]: 7.08

CCCOC(=O)N1CCC(CN2CC[C@H](NC(=O)c3cc(Cl)c(N)cc3OC)[C@H](OC)C2)CC1 (relative stereo) [Compound 6, propyl 4-[(cis-4-(4-amino-5-chloro-2-methoxybenzamido)-3-methoxypiperidin-1-yl)methyl]piperidine-1-carboxylate]
Minimum lethal dose (MLD, mg/kg) [1, 4]: >1000 mg/kg | pIC50 [2]: 7.03

COC(=O)N1CCC(CN2CC[C@H](NC(=O)c3cc(Cl)c(N)cc3OC)[C@H](OC)C2)CC1 (relative stereo) [Compound 5, methyl 4-[(cis-4-(4-amino-5-chloro-2-methoxybenzamido)-3-methoxypiperidin-1-yl)methyl]piperidine-1-carboxylate]
pIC50 [2]: 6.89

CCCCCC(=S)N1CCC(CN2CC[C@H](NC(=O)c3cc(Cl)c(N)cc3OC)[C@H](OC)C2)CC1 (relative stereo) [Compound 34, cis-4-amino-5-chloro-N-[1-((1-hexanethioylpiperidin-4-yl)methyl)-3-methoxypiperidin-4-yl]-2-methoxybenzamide]
pIC50 [2]: 7.28

COc1cc(N)c(Cl)cc1C(=O)N[C@H]1CCN(CC2CCN(C(C)=S)CC2)C[C@H]1OC (relative stereo) [Compound 31, cis-4-amino-5-chloro-N-[1-((1-ethanethioylpiperidin-4-yl)methyl)-3-methoxypiperidin-4-yl]-2-methoxybenzamide]
pIC50 [2]: 6.67

COc1cc(N)c(Cl)cc1C(=O)N[C@H]1CCN(CC2CCN(S(C)(=O)=O)CC2)C[C@H]1OC (relative stereo) [Compound 43, cis-4-amino-5-chloro-N-[1-((1-(methylsulfonyl)piperidin-4-yl)methyl)-3-methoxypiperidin-4-yl]-2-methoxybenzamide]
pIC50 [2]: 6.78

CCCCC(=S)N1CCC(CN2CC[C@H](NC(=O)c3cc(Cl)c(N)cc3OC)[C@H](OC)C2)CC1 (relative stereo) [Compound 33, cis-4-amino-5-chloro-N-[1-((1-pentanethioylpiperidin-4-yl)methyl)-3-methoxypiperidin-4-yl]-2-methoxybenzamide]
pIC50 [2]: 6.97

COc1cc(N)c(Cl)cc1C(=O)N[C@H]1CCN(CC2CCN(C(=O)OC(C)C)CC2)C[C@H]1OC (relative stereo) [Compound 8, isopropyl 4-[(cis-4-(4-amino-5-chloro-2-methoxybenzamido)-3-methoxypiperidin-1-yl)methyl]piperidine-1-carboxylate]
pIC50 [2]: 6.89

CCCC(=O)N1CCC(CN2CC[C@H](NC(=O)c3cc(Cl)c(N)cc3OC)[C@H](OC)C2)CC1 (relative stereo) [Compound 20, cis-4-amino-5-chloro-N-[1-((1-butyrylpiperidin-4-yl)methyl)-3-methoxypiperidin-4-yl]-2-methoxybenzamide]
pIC50 [2]: 6.97

CCC(=O)N1CCC(CN2CC[C@H](NC(=O)c3cc(Cl)c(N)cc3OC)[C@H](OC)C2)CC1 (relative stereo) [Compound 17, cis-4-amino-5-chloro-N-[1-((1-propionylpiperidin-4-yl)methyl)-3-methoxypiperidin-4-yl]-2-methoxybenzamide]
Minimum lethal dose (MLD, mg/kg) [1, 3]: >1000 mg/kg

COc1cc(N)c(Cl)cc1C(=O)N[C@H]1CCN(CC2CCN(C(=S)C(C)(C)C)CC2)C[C@H]1OC (relative stereo) [Compound 38, cis-4-amino-5-chloro-N-[1-((1-(2,2-dimethylpropanethioyl)piperidin-4-yl)methyl)-3-methoxypiperidin-4-yl]-2-methoxybenzamide]
pIC50 [2]: 6.66

COc1cc(N)c(Cl)cc1C(=O)N[C@H]1CCN(CC2CCN(C(=S)CCC(C)C)CC2)C[C@H]1OC (relative stereo) [Compound 37, cis-4-amino-5-chloro-N-[1-((1-(4-methylpentanethioyl)piperidin-4-yl)methyl)-3-methoxypiperidin-4-yl]-2-methoxybenzamide]
pIC50 [2]: 6.76

COc1cc(N)c(Cl)cc1C(=O)N[C@H]1CCN(CCC(=O)Nc2ccc3ncccc3c2)C[C@H]1OC (relative stereo) [Compound 57, cis-4-amino-5-chloro-N-[1-(3-oxo-3-(quinolin-6-ylamino)propyl)-3-methoxypiperidin-4-yl]-2-methoxybenzamide]
pIC50 [2]: 7.28

COc1cc(N)c(Cl)cc1C(=O)N[C@H]1CCN(CC2CCN(C(=O)CCC(C)C)CC2)C[C@H]1OC (relative stereo) [Compound 27, cis-4-amino-5-chloro-N-[1-((1-(4-methylpentanoyl)piperidin-4-yl)methyl)-3-methoxypiperidin-4-yl]-2-methoxybenzamide]
pIC50 [2]: 7.05

COc1cc(N)c(Cl)cc1C(=O)N[C@H]1CCN(CCc2noc(C)n2)C[C@H]1OC (relative stereo) [Compound 54, cis-4-amino-5-chloro-N-[1-(2-(5-methyl-1,2,4-oxadiazol-3-yl)ethyl)-3-methoxypiperidin-4-yl]-2-methoxybenzamide]
Minimum lethal dose (MLD, mg/kg) [1, 3]: >1000 mg/kg

COc1cc(N)c(Cl)cc1C(=O)N[C@H]1CCN(CC2CCN(C(=S)C(C)C)CC2)C[C@H]1OC (relative stereo) [Compound 30, cis-4-amino-5-chloro-N-[1-((1-(2-methylpropanethioyl)piperidin-4-yl)methyl)-3-methoxypiperidin-4-yl]-2-methoxybenzamide]
pIC50 [2]: 6.97

CCOC(=O)N1CCC(CCN2CC[C@H](NC(=O)c3cc(Cl)c(N)cc3OC)[C@H](OC)C2)CC1 (relative stereo) [Compound 3, ethyl 4-[2-(cis-4-(4-amino-5-chloro-2-methoxybenzamido)-3-methoxypiperidin-1-yl)ethyl]piperidine-1-carboxylate]
pIC50 [2]: 6.82

CCSC(=O)N1CCC(CN2CC[C@H](NC(=O)c3cc(Cl)c(N)cc3OC)[C@H](OC)C2)CC1 (relative stereo) [Compound 39, S-ethyl 4-[(cis-4-(4-amino-5-chloro-2-methoxybenzamido)-3-methoxypiperidin-1-yl)methyl]piperidine-1-carbothioate]
pIC50 [2]: 7.33

COc1cc(N)c(Cl)cc1C(=O)N[C@H]1CCN(CC2CCN(C(=O)OCC(C)C)CC2)C[C@H]1OC (relative stereo) [Compound 9, isobutyl 4-[(cis-4-(4-amino-5-chloro-2-methoxybenzamido)-3-methoxypiperidin-1-yl)methyl]piperidine-1-carboxylate]
pIC50 [2]: 6.97

CCCCOC(=O)N1CCC(CN2CC[C@H](NC(=O)c3cc(Cl)c(N)cc3OC)[C@H](OC)C2)CC1 (relative stereo) [Compound 7, butyl 4-[(cis-4-(4-amino-5-chloro-2-methoxybenzamido)-3-methoxypiperidin-1-yl)methyl]piperidine-1-carboxylate]
pIC50 [2]: 7.28

CCCC(=S)N1CCC(CN2CC[C@H](NC(=O)c3cc(Cl)c(N)cc3OC)[C@H](OC)C2)CC1 (relative stereo) [Compound 35, cis-4-amino-5-chloro-N-[1-((1-butanethioylpiperidin-4-yl)methyl)-3-methoxypiperidin-4-yl]-2-methoxybenzamide]
pIC50 [2]: 6.83

COc1cc(N)c(Cl)cc1C(=O)N[C@H]1CCN(CCCCCC(=O)Nc2cccc3ncccc23)C[C@H]1OC (relative stereo) [Compound 58, cis-4-amino-5-chloro-N-[1-(6-oxo-6-(quinolin-5-ylamino)hexyl)-3-methoxypiperidin-4-yl]-2-methoxybenzamide]
pIC50 [2]: 7.11

COc1cc(N)c(Cl)cc1C(=O)N[C@H]1CCN(CC2CCN(C(=S)CC(C)C)CC2)C[C@H]1OC (relative stereo) [Compound 36, cis-4-amino-5-chloro-N-[1-((1-(3-methylbutanethioyl)piperidin-4-yl)methyl)-3-methoxypiperidin-4-yl]-2-methoxybenzamide]
pIC50 [2]: 6.76

COc1cc(N)c(Cl)cc1C(=O)N[C@H]1CCN(CCC(=O)Nc2ccc3[nH]ccc3c2)C[C@H]1OC (relative stereo) [Compound 61, cis-4-amino-5-chloro-N-[1-(3-oxo-3-(1H-indol-5-ylamino)propyl)-3-methoxypiperidin-4-yl]-2-methoxybenzamide]
pIC50 [2]: 7.32

COc1cc(N)c(Cl)cc1C(=O)N[C@H]1CCN(CCCCCC(=O)Nc2ccc3[nH]ccc3c2)C[C@H]1OC (relative stereo) [Compound 62, cis-4-amino-5-chloro-N-[1-(6-oxo-6-(1H-indol-5-ylamino)hexyl)-3-methoxypiperidin-4-yl]-2-methoxybenzamide]
pIC50 [2]: 7.36
